Experimental data reported in US7427599B2, “Biologically active peptide comprising Tyrosyl-seryl-valine(YSV)” (CMS Peptides Patent Holding Company Limited, priority 2003, dated 2008).
Peptide text beside a SMILES is read from it.

What was measured:
[1] = system: T lymphocytes (spleen lymphocyte suspension); assay: Effect of YSV on T lymphocyte transformation in vitro (ConA, MTT); assay type: cell-based, BALB/c Mice; settings: for X ± SD (OD), T lymphocytes transformation: 68 hrs, MTT OD570 nm, positive control 0.14 ± 0.00
Experimental: Healthy mice were sacrificed by cervical dislocation. The spleens were isolated and dispersed aseptically. The spleen lymphocyte suspension washed and adjusted to a cell density of 5×10^6/ml with RPMI-1640 culture medium containing 10% fetal bovine serum. YSV was diluted with RPMI-1640 culture medium into various concentrations: 2 μg/ml, 0.4 μg/ml, 0.08 μg/ml, 0.016 μg/ml. Con A working solution was adjusted to 1 mg/ml with RPMI-1640 culture medium.
The reagents were placed onto a 96 wells cell culture plate according to the following: 100 μl/well lymphocyte suspension, 20 μl/well ConA, and 100 μl/well YSV solution of various concentrations, 6 parallel wells for each concentration; 100 μl/well lymphocyte suspension and 120 μl/well RPMI-1640 culture medium (containing 10% FBS) were added to 12 parallel wells as negative control; 100 μl/well lymphocyte suspension, 100 μl/well RPMI-1640 culture medium (10% FBS) and 20 μl/well ConA were added to 12 parallel wells as positive control.
The cells were incubated for 68 hrs at 37° C., 5% CO2, and then pelleted by centrifugation at 150 g for 10 minutes. After the supernatant was removed, 50 μl/well MTT of 1 mg/ml in RPMI-1640 was added to the cell pellet and the cells were re-suspended by shaking for 2 minutes. The incubation was continued for 4 hours. The supernatant was removed after centrifugation at 150 g for 10 minutes. After blotted dry with filter paper, the cells were mixed with 120 μl 40 mM HCl-2-propanol and shaken for 3 minutes. OD570 nm of each well referenced at 630 nm was obtained with an ELISA reader.

[2] = system: Human liver cancer BEL7402 cells; assay: Proliferation of cultured human liver cancer BEL7402 cells in vitro (MTT); assay type: cell-based; settings: for % inhibition / OD value: 48 hours; for OD value: MTT OD570nm, negative control 0.36 ± 0.01
Experimental: Human liver cancer BEL7402 cells at logarithmic growth phase were detached by incubating for 2 to 3 minutes with phosphate buffer saline pH7.4 (PBS) containing 0.05% trypsin and 0.02% EDTA. The cells were examined by inverted phase contrast microscopy. The supernatant was removed after cytoplasm pyknosis and dilatation of cell compartment were observed. A few milliliters of RPMI-1640 culture medium with 10% FBS was added to terminate the digestion. The cells were harvested by gently blowing with a pipette. The suspended cells were collected by centrifugation at 150 g for 10 minutes, and washed twice by cold D-Hank's solution with re-suspension and centrifugation. The washed cells were re-suspended in RPMI-1640 medium with 10% FBS and adjusted to density of 5×10^4/ml. The treated BEL7402 cells were placed onto a 96 wells cell culture plate, 100 μl/well. The cells were incubated for 24 hours at 37° C., 5% CO2 for re-activation and attachment.
The experiment included three testing groups with different concentrations of YSV and a negative control. The final concentrations of YSV in culture medium were 20 μg/ml, 10 μg/ml, and 5 μg/ml. The YSV solution was replaced by RPMI-1640 culture medium with 10% FBS in the negative control group. Each group contained five parallel wells. The cells were incubated for 48 hours at 37° C., 5% CO2.
(§1) The cells were then pelleted by centrifugation at 150 g for 10 minutes. After the supernatant was removed, 100 μl/well MTT of 0.5 mg/ml in RPMI-1640 was added to the cell pellets and the cells were re-suspended by shaking for 2 minutes. Incubation was continued for 4 hours. The supernatant was removed after centrifugation at 150 g for 10 minutes. After blotted dry by filter paper, 100 μl/well 40 mM HCl-2-propanol was added to the cell pellets and shaken for 3 minutes. OD570nm of each well referenced at 630 nm was obtained by using ELISA reader.

[3] = system: human leukemia K562 cells; assay: Proliferation of cultured human leukemia K562 cells in vitro (MTT); assay type: cell-based; settings: for % inhibition / OD value: 48 hours; for OD value: MTT OD570 nm, negative control 0.43 ± 0.01
Experimental: A human leukemia K562 cell at logarithmic growth phase was adjusted to density of 5×10^4/ml with RPMI-1640 culture medium containing 10% FBS. 100 μl/well of the cell were placed onto a 96 wells cell culture plate. The cells were incubated for 24 hours at 37° C., 5% CO2. The experiment included […] with different concentrations of YSV in culture medium and a negative control group with culture medium only. The final concentrations of YSV were 40 μg/ml, 20 μg/ml, 10 μg/ml, and 5 μg/ml. Each group contained five parallel wells. 100 μl/well testing solution was added to the treated cells. The cells were incubated for 48 hours at 37° C., 5% CO2.
as §1, with “The” for “After the”, “removed and” for “removed,”, “MTT solution” for “MTT”, “after a” for “after”, “OD570 nm” for “OD570nm”

## CC(C)[C@H](NC(=O)[C@H](CO)NC(=O)[C@@H](N)Cc1ccc(O)cc1)C(=O)O [YSV, L-Tyrosyl-L-seryl-L-valine] (H-Tyr-Ser-Val-OH)
[1]; 0.016 μg/ml to 2 μg/ml, p<0.001
  stimulation of T lymphocyte transformation activity in vitro (conclusion): able to stimulate the T lymphocyte transformation activity in vitro with statistical significance
[1]; YSV 0.016 μg/ml with ConA
  X ± SD (OD), T lymphocytes transformation: 0.21 ± 0.01 OD
[1]; YSV 0.08 μg/ml with ConA
  X ± SD (OD), T lymphocytes transformation: 0.23 ± 0.00 OD
[1]; YSV 0.4 μg/ml with ConA
  X ± SD (OD), T lymphocytes transformation: 0.18 ± 0.01 OD
[1]; YSV 2 μg/ml with ConA
  X ± SD (OD), T lymphocytes transformation: 0.18 ± 0.00 OD
[2]; 5 μg/ml to 20 μg/ml, p<0.05
  inhibition of growth of BEL7402 cells in vitro (conclusion): able to inhibit the growth of human hepatocellular carcinoma BEL7402 cells in vitro
[2]; 5 μg/ml
  % inhibition: 9.8%
  OD value: 0.31 ± 0.01
[2]; 10 μg/ml
  % inhibition: 38.0%
  OD value: 0.22 ± 0.01
[2]; 20 μg/ml
  % inhibition: 23.7%
  OD value: 0.27 ± 0.01
[3]; 5 μg/ml to 40 μg/ml, p<0.05
  inhibition of growth of K562 cells in vitro (conclusion): able to inhibit the growth of human leukemia K562 cells in vitro
[3]; 5 μg/ml
  % inhibition: 9.7%
  OD value: 0.39 ± 0.01
[3]; 10 μg/ml
  % inhibition: 9.3%
  OD value: 0.39 ± 0.01
[3]; 20 μg/ml
  % inhibition: 11.3%
  OD value: 0.38 ± 0.00
[3]; 40 μg/ml
  % inhibition: 10.8%
  OD value: 0.38 ± 0.00
